According to patent US20210214375A1 (LUNDBECK LA JOLLA RESEARCH CENTER, INC., priority 2017, published 2021):
Read-outs that look alike come from different tables or passages of the source.

Experiments:
MAGL [1] = molecular target: T1, MAGL (Homo sapiens, UniProt Q99685); experiment: In vitro competitive activity-based protein profiling (gel-based, FP-Rh or HT-01 probe); format: biochemical
T1 construct: Proteomes (human prefrontal cortex or cell membrane fractions); from tissue
T1 sequence (Q99685 1-303): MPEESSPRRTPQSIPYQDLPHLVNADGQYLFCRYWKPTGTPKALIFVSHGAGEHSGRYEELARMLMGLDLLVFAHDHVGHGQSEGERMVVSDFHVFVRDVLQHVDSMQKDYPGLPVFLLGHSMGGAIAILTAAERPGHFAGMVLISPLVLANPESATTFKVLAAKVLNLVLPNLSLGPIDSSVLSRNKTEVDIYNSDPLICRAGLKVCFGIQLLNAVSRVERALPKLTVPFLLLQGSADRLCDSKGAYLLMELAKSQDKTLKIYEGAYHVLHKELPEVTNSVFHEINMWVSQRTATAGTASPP
How it was run: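 Human prefrontal cortex or cell membrane proteomes (1.0 mg/mL protein) preincubated with varying inhibitor concentrations 30 min at 37° C. FP-Rh or HT-01 probe (1.0 μL of 50 μM stock) then added for 30 min at room temperature; reactions quenched with SDS loading buffer and resolved by SDS-PAGE.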

MAGL [2] = molecular target: T2, MAGL (Mus musculus, UniProt O35678); experiment: Mouse brain proteomes from inhibitor treated mice (oral gavage, brain proteomes analyzed 4 h after administration); format: in vivo, mouse (C57Bl/6J); conditions: brain proteome 4 h after administration, read-out: % Inh 5 mg/kg MGLL (Mouse)
T2 construct: from tissue; host or cells: brain of wild-type C57Bl/6J mice
T2 sequence (O35678 1-303): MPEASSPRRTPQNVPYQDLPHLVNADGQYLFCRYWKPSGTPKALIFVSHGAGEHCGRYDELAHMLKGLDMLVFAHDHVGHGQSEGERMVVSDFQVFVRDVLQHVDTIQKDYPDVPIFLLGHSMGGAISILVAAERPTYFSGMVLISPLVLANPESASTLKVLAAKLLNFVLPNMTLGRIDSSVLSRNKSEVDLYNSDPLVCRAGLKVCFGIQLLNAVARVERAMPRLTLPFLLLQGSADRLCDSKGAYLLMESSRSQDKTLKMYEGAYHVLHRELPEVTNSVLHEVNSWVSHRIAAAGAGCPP
Procedure: Compounds are tested to assess their MAGL and serine hydrolase activity using the following in vitro and in vivo assays.
Preparation of Mouse Brain Proteomes from Inhibitor Treated Mice.
Inhibitors were administered to wild-type C57Bl/6J by oral gavage in a vehicle of polyethylene glycol. Each animal was sacrificed 4 h following administration and brain proteomes were prepared and analyzed according to previously established methods (See Niphakis, M. J., et al. (2011) ACS Chem. Neurosci. and Long, J. Z., et al. Nat. Chem. Biol. 5:37-44).

ABHD6 = molecular target: T3, ABHD6 (Mus musculus, UniProt Q8R2Y0); experiment: In vitro competitive activity-based protein profiling, mouse brain proteome, ABHD6; format: biochemical; conditions: for % Inh ABHD6 Brain (Mouse, μM): mouse brain proteome
T3 construct: Brain; from tissue; host or cells: mouse brain proteome
T3 sequence (Q8R2Y0 1-336): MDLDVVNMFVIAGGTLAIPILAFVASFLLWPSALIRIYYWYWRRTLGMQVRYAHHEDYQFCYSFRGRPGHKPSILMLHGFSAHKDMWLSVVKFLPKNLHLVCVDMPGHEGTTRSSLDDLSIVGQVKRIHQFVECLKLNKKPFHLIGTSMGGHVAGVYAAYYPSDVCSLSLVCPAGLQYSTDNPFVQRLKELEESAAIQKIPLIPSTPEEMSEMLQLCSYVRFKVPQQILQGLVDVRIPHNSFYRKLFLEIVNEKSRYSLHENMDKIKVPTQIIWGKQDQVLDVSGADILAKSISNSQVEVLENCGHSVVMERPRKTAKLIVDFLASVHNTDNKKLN
Procedure: [Worded in the source for another target; this target is reported under the same test.] (§1) Proteomes (human prefrontal cortex or cell membrane fractions) (50 μL, 1.0 mg/mL total protein concentration) were preincubated with varying concentrations of inhibitors at 37° C. After 30 min, FP—Rh or HT-01 (1.0 μL, 50 μM in DMSO) was added and the mixture was incubated for another 30 min at room temperature. Reactions were quenched with SDS loading buffer (15 μL-4×) and run on SDS-PAGE.

MGLL = molecular target: T4, MGLL (Mus musculus, UniProt O35678); experiment: In vitro competitive activity-based protein profiling, mouse brain proteome; format: biochemical
T4 construct: Brain; from tissue; host or cells: mouse brain proteome
T4 sequence (O35678 1-303): T2 sequence (O35678 1-303)
Procedure: [Worded in the source for another species; this species is reported under the same test.] as §1

[3] = PC3 proteome, read-out: IC50 MGLL PC3 (Human)
[4] = PFC (prefrontal cortex) proteome
[5] = PFC (prefrontal cortex) proteome, read-out: IC50 MGLL PFC (Human)

Structure (SMILES) | IC50 (MAGL [1]; [3]) | % Inh MGLL PFC (Human, μM) (MAGL [1]; [4]) | inhibition at 5 mg/kg (MAGL [2]) | further results
CN(Cc1cccc(Cl)c1C1(C(=O)O)CCCC1)C1(C)CCN(C(=O)OC(C(F)(F)F)C(F)(F)F)CC1 [Example 9, 1-(2-Chloro-6-(((1-(((1,1,1,3,3,3-hexafluoropropan-2-yl)oxy)carbonyl)-4-methylpiperidin-4-yl)(methyl)amino)methyl)phenyl)cyclopentane-1-carboxylic acid] | < 100 nM | ### (### is ≥ 75%) | ≤ 25% | 
O=C(O)CN1CC2CC1CN2c1cc(CN2CC3(CCN(C(=O)OC(C(F)(F)F)C(F)(F)F)CC3)C2)cc(C(F)(F)F)c1 (stereo not drawn) [Example 129, 2-(5-{3-[(7-{[(1,1,1,3,3,3-Hexafluoropropan-2-yl)oxy]carbonyl}-2,7-diazaspiro[3.5]nonan-2-yl)methyl]-5-(trifluoromethyl)phenyl}-2,5-diazabicyclo[2.2.1]heptan-2-yl)acetic acid] |  |  | ≤ 25% | 
O=C(O)CN1CC2CC1CN2c1cc(CN2CCC3(CCN(C(=O)OC(C(F)(F)F)C(F)(F)F)CC3)C2)cc(C(F)(F)F)c1 (stereo not drawn) [Example 125, 2-(5-{3-[(8-{[(1,1,1,3,3,3-Hexafluoropropan-2-yl)oxy]carbonyl}-2,8-diazaspiro[4.5]decan-2-yl)methyl]-5-(trifluoromethyl)phenyl}-2,5-diazabicyclo[2.2.1]heptan-2-yl)acetic acid] | < 100 nM |  | ≤ 25% | 
O=C(O)CN1CC2CC1CN2c1cc(C(F)(F)F)ccc1CN1CC2(CCN(C(=O)OC(C(F)(F)F)C(F)(F)F)CC2)C1 (stereo not drawn) [Example 127, 2-(5-{2-[(7-{[(1,1,1,3,3,3-Hexafluoropropan-2-yl)oxy]carbonyl}-2,7-diazaspiro[3.5]nonan-2-yl)methyl]-5-(trifluoromethyl)phenyl}-2,5-diazabicyclo[2.2.1]heptan-2-yl)acetic acid] | < 100 nM |  | ≤ 25% | 
CC(C)(C#Cc1c(F)cccc1CN1CCCC12CCN(C(=O)OC(C(F)(F)F)C(F)(F)F)CC2)C(=O)O [Example 147, 4-{2-Fluoro-6-[(8-{[(1,1,1,3,3,3-hexafluoropropan-2-yl)oxy]carbonyl}-1,8-diazaspiro[4.5]decan-1-yl)methyl]phenyl]-2,2-dimethylbut-3-ynoic acid] | < 100 nM | ### (### is ≥ 75%) | ≥ 75% | 
O=C(O)CN1CC2(CCN(c3cc(CN4CCCC45CCN(C(=O)OC(C(F)(F)F)C(F)(F)F)CC5)cc(C(F)(F)F)c3)CC2)C1 [Example 158, 2-(7-(3-((8-(((1,1,1,3,3,3-Hexafluoropropan-2-yl)oxy)carbonyl)-1,8-diazaspiro[4.5]decan-1-yl)methyl)-5-(trifluoromethyl)phenyl)-2,7-diazaspiro[3.5]nonan-2-yl)acetic acid] | < 100 nM |  | ≤ 25% | 
O=C(O)C1CCN(Cc2cc(C(F)(F)F)ccc2C(=O)N2CCCC23CCN(C(=O)OC(C(F)(F)F)C(F)(F)F)CC3)CC1 [Example 10, 1-(2-(8-(((1,1,1,3,3,3-Hexafluoropropan-2-yl)oxy)carbonyl)-1,8-diazaspiro[4.5]decane-1-carbonyl)-5-(trifluoromethyl)benzyl)piperidine-4-carboxylic acid] |  | ### (### is ≥ 75%) | ≥ 75% | 
CC1(C(=O)O)CCCN(c2cc(CN3CC4(CCN(C(=O)OC(C(F)(F)F)C(F)(F)F)CC4)C3)cc(C(F)(F)F)c2)C1 (stereo not drawn) [Example 114, 1-(3-((7-(((1,1,1,3,3,3-Hexafluoropropan-2-yl)oxy)carbonyl)-2,7-diazaspiro[3.5]nonan-2-yl)methyl)-5-(trifluoromethyl)phenyl)-3-methylpiperidine-3-carboxylic acid] | < 100 nM |  | 25 to 75% | IC50 (MAGL [1]; [5]): < 100 nM
O=C(O)CN1CC2CC1CN2c1cc(CN2CCCC23CCN(C(=O)OC(C(F)(F)F)C(F)(F)F)CC3)cc(C(F)(F)F)c1 (stereo not drawn) [Example 128, 2-(5-{3-[(8-{[(1,1,1,3,3,3-Hexafluoropropan-2-yl)oxy]carbonyl}-1,8-diazaspiro[4.5]decan-1-yl)methyl]-5-(trifluoromethyl)phenyl}-2,5-diazabicyclo[2.2.1]heptan-2-yl)acetic acid] | < 100 nM |  | ≤ 25% | 
O=C(O)CN1CC2CC1CN2c1cc(C(F)(F)F)ccc1CN1CCCC12CCN(C(=O)OC(C(F)(F)F)C(F)(F)F)CC2 (stereo not drawn) [Example 126, 2-(5-{2-[(8-{[(1,1,1,3,3,3-Hexafluoropropan-2-yl)oxy]carbonyl}-1,8-diazaspiro[4.5]decan-1-yl)methyl]-5-(trifluoromethyl)phenyl}-2,5-diazabicyclo[2.2.1]heptan-2-yl)acetic acid] | < 100 nM |  | ≤ 25% | 
O=C(OC(C(F)(F)F)C(F)(F)F)N1CCC2(CCCN2Cc2cc(F)cc(C3(C(=O)O)CCCC3)c2)CC1 [Example 4, 1-(3-Fluoro-5-((8-(((1,1,1,3,3,3-hexafluoropropan-2-yl)oxy)carbonyl)-1,8-diazaspiro[4.5]decan-1-yl)methyl)phenyl)cyclopentane-1-carboxylic acid] | < 100 nM | ### (### is ≥ 75%) | ≥ 75% | 
CN(Cc1ccccc1C1(C(=O)O)CCCC1)C1(C)CCN(C(=O)OC(C(F)(F)F)C(F)(F)F)CC1 [Example 141] | < 100 nM | ### (### is ≥ 75%) | ≥ 75% | 
O=C(O)[C@@H]1CCCN1C1CCN(c2cc(C(F)(F)F)ccc2CN2CCCC23CCN(C(=O)OC(C(F)(F)F)C(F)(F)F)CC3)CC1 [Example 164, (1-(2-((8-(((1,1,1,3,3,3-Hexafluoropropan-2-yl)oxy)carbonyl)-1,8-diazaspiro[4.5]decan-1-yl)methyl)-5-(trifluoromethyl)phenyl)piperidin-4-yl)-L-proline] |  |  |  | % Inh ABHD6 Brain (Mouse, μM) (ABHD6): # (# is ≤ 25%); % Inh MGLL PC3 (Human, μM) (MAGL [1]; PC3 proteome): ### (### is ≥ 75%); % Inh MGLL Brain (Mouse, μM) (MGLL): ### (### is ≥ 75%)
CC1(N(CC(=O)O)Cc2ccc(C(F)(F)F)cc2N2CCOCC2)CCN(C(=O)OC(C(F)(F)F)C(F)(F)F)CC1 [Example 124, N-(1-(((1,1,1,3,3,3-Hexafluoropropan-2-yl)oxy)carbonyl)-4-methylpiperidin-4-yl)-N-(2-morpholino-4-(trifluoromethyl)benzyl)glycine] | < 100 nM |  | ≥ 75% | 
O=C(O)C1CCN(c2cc(Cl)ccc2CN2CCC3(CC2)CCN(C(=O)OC(C(F)(F)F)C(F)(F)F)C3)CC1 [Example 194, 1-(5-Chloro-2-((2-(((1,1,1,3,3,3-hexafluoropropan-2-yl)oxy)carbonyl)-2,8-diazaspiro[4.5]decan-8-yl)methyl)phenyl) piperidine-4-carboxylic acid] | < 100 nM |  |  | IC50 (ABHD6; mouse): > 1000 nM; IC50 (MAGL [1]; [5]): < 100 nM; IC50 (MGLL): 100 to 1000 nM
O=C(O)CN1CC2CC1CN2c1cc(C(F)(F)F)ccc1CN1CCCC12CCN(C(=O)OC(C(F)(F)F)C(F)(F)F)CC2 (stereo not drawn) [Example 6, 2-(5-(2-((8-(((1,1,1,3,3,3-hexafluoropropan-2-yl)oxy)carbonyl)-1,8-diazaspiro[4.5]decan-1-yl)methyl)-5-(trifluoromethyl)phenyl)-2,5-diazabicyclo[2.2.1]heptan-2-yl)acetic acid] | < 100 nM | ### (### is ≥ 75%) |  | % Inh ABHD6 Brain (Mouse, μM) (ABHD6): # (# is ≤ 25%); IC50 (MAGL [1]; [5]): < 100 nM; % Inh MGLL Brain (Mouse, μM) (MGLL): ### (### is ≥ 75%)
